Laboratory results taken from ChEMBL document CHEMBL1201862, “PubChem BioAssay data set” (2004).
Active and inactive are the calls of the source.

Tests used:
[1] = biological target: Intestinal-type alkaline phosphatase (Mus musculus, UniProt P24822); test: PubChem AID 488785; assay type: functional
[2] = inhibitors of firefly luciferase expression or activity, dose response, H4 neuroglioma cells, luminescence (AID 1990); assay type: functional, cell-based
[3] = test system: HeLa; test: Cytotoxicity counterscreen assay for transcriptional activators of heat shock protein 70 (Hsp70). [Related pubchem assays: 1203, 1252 ]; assay type: functional; details: Homo sapiens;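 also: cells exposed to compound for 16 hours before readout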
[4] = biological target: T1, Streptokinase A (Streptococcus pyogenes serotype M1, UniProt P10520); test: S. pyogenes streptokinase expression inhibitors, potency, dose response, plasminogen activation absorbance, OD405 (AID 1914); assay type: functional, Streptococcus pyogenes M1 GAS;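 also: secreted streptokinase activity via plasminogen activation per viability signal from cell pellet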
T1 sequence (P10520 whole entry): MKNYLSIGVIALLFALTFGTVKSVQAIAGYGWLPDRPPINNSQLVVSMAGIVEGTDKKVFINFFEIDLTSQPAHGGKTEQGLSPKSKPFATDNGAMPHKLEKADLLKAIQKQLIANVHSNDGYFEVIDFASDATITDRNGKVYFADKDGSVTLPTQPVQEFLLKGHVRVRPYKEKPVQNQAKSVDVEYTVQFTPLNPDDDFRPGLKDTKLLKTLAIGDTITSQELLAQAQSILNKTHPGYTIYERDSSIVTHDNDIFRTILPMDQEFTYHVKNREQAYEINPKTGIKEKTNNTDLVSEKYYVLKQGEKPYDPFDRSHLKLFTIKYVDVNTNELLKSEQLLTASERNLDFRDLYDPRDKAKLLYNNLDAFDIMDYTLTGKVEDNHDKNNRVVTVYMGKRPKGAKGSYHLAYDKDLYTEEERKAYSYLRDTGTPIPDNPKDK

[5] = biological target: Sphingosine 1-phosphate receptor 1 (Homo sapiens, UniProt P21453); assay type: functional;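 also: Tango beta-arrestin reporter U2OS cells stimulated with S1P near its EC80; inhibitor potency meaning antagonism of receptor activation by the natural agonist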
[6] = test system: Streptococcus; test: Group A Streptococcus viability loss, dose response, counter-screen for streptokinase expression inhibitor project, luminescence, BacTiterGlo (AID 1915); assay type: functional, organism-based;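 also: potency for reduction of bacterial viability or growth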
[7] = biological target: T2, Replicative DNA helicase DnaB (Mycobacterium tuberculosis, UniProt P9WMR3); test: DnaB intein splicing inhibitors, dose response, biochemical, cell-free fluorescence (AID 449749); assay type: functional
T2 sequence (P9WMR3 whole entry): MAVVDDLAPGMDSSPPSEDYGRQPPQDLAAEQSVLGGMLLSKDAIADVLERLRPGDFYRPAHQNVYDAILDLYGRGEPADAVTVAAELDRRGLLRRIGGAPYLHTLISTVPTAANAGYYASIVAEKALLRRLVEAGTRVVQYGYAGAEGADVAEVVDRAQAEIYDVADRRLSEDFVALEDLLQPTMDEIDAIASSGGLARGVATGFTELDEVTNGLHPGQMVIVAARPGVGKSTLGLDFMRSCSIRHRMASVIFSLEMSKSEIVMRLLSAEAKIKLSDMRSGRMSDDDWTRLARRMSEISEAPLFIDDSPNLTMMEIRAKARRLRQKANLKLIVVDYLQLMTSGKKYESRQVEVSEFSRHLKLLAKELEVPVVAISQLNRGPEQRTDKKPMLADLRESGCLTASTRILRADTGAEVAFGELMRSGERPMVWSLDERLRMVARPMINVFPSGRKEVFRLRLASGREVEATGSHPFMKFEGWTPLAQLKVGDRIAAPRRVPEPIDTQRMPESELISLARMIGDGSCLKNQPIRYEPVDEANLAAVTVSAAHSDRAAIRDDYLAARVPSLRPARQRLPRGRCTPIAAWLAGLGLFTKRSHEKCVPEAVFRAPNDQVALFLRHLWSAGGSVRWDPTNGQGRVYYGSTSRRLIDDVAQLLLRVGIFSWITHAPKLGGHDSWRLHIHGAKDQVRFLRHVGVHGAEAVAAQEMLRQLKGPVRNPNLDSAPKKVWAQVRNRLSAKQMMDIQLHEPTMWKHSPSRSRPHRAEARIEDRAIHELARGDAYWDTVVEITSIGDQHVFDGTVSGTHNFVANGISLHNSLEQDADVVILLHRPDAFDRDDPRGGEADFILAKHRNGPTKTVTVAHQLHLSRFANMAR

[8] = biological target: Multidrug resistance protein CDR1 (Candida albicans, UniProt P43071); test: CaCDR1 efflux pump inhibitors in yeast, dose response, S. cerevisiae AD1-8u, singleplex, Cherry Pick1 hits (AID 588606); assay type: functional
[9] = biological target: Dual specificity mitogen-activated protein kinase kinase 1 (Homo sapiens, UniProt Q02750); test: Navigating the Kinome. Panel member name: MAP2K1; assay type: functional
[10] = biological target: ALK tyrosine kinase receptor (Homo sapiens, UniProt Q9UM73); assay type: functional;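 also: ALK tested as one member of a kinase panel screen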
[11] = biological target: Serine/threonine-protein kinase D3 (Homo sapiens, UniProt O94806); assay type: functional;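 also: determined within a kinase panel screen, with PRKCN as the panel member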
[12] = biological target: Aurora kinase A (Homo sapiens, UniProt O14965); assay type: functional;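 also: value from the Navigating the Kinome kinase panel profiling, panel entry STK6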
[13] = biological target: Mast/stem cell growth factor receptor Kit (Homo sapiens, UniProt P10721); assay type: functional;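 also: KIT entry within a kinase panel assay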
[14] = biological target: Calcium/calmodulin-dependent protein kinase type II subunit delta (Homo sapiens, UniProt Q13557); assay type: functional
[15] = biological target: Protein-tyrosine kinase 2-beta (Homo sapiens, UniProt Q14289); assay type: functional
[16] = biological target: Non-receptor tyrosine-protein kinase TYK2 (Homo sapiens, UniProt P29597); assay type: functional
[17] = biological target: Tyrosine-protein kinase Srms (Homo sapiens, UniProt Q9H3Y6); assay type: functional;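 also: SRMS measured as one member of a kinome-wide kinase profiling panel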
[18] = biological target: Protein kinase C iota type (Homo sapiens, UniProt P41743); assay type: functional;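 also: measured within a kinome-wide kinase panel, PRKCI as panel member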
[19] = biological target: cAMP-dependent protein kinase catalytic subunit PRKX (Homo sapiens, UniProt P51817); assay type: functional
[20] = biological target: RAC-alpha serine/threonine-protein kinase (Homo sapiens, UniProt P31749); assay type: functional;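 also: AKT1 affinity measured as one member of a kinome-wide kinase profiling panel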
[21] = biological target: Cyclin-dependent kinase 1 (Homo sapiens, UniProt P06493); assay type: functional;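 also: Kinome-wide panel profiling, with the target listed as panel member CDC2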
[22] = biological target: Serine/threonine-protein kinase pim-2 (Homo sapiens, UniProt Q9P1W9); assay type: functional;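 also: value comes from a broad kinase panel profiling study in which PIM2 was one of the panel members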
[23] = biological target: 3-phosphoinositide-dependent protein kinase 1 (Homo sapiens, UniProt O15530); assay type: functional;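 also: value comes from the Navigating the Kinome panel, PDPK1 member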
[24] = biological target: Vascular endothelial growth factor receptor 1 (Homo sapiens, UniProt P17948); assay type: functional;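 also: measured within a kinome-wide profiling panel, FLT1 as the panel member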
[25] = biological target: Macrophage colony-stimulating factor 1 receptor (Homo sapiens, UniProt P07333); assay type: functional;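 also: value comes from the Navigating the Kinome screening panel, CSF1R member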
[26] = biological target: Inhibitor of nuclear factor kappa-B kinase subunit epsilon (Homo sapiens, UniProt Q14164); test: Navigating the Kinome. Panel member name: IKBKE; assay type: functional
[27] = C. albicans growth with fluconazole, confirmation, fluorescence, retest (AID 2467); assay type: functional, cell-based

Sequence of Calcium/calmodulin-dependent protein kinase type II subunit delta (Q13557 whole entry): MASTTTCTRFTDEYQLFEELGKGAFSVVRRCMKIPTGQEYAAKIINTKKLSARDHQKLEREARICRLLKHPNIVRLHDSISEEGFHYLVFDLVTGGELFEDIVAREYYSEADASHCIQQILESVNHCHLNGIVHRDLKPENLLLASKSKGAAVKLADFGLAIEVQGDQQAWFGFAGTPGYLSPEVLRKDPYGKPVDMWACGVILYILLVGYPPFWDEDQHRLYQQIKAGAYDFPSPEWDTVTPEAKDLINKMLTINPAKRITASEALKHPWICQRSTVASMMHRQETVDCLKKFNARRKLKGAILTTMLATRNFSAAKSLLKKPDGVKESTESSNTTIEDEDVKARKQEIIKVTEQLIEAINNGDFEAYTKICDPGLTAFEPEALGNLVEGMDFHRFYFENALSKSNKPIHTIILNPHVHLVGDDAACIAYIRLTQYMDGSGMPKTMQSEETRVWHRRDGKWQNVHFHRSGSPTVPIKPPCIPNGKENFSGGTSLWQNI
Sequence of Sphingosine 1-phosphate receptor 1 (P21453 whole entry): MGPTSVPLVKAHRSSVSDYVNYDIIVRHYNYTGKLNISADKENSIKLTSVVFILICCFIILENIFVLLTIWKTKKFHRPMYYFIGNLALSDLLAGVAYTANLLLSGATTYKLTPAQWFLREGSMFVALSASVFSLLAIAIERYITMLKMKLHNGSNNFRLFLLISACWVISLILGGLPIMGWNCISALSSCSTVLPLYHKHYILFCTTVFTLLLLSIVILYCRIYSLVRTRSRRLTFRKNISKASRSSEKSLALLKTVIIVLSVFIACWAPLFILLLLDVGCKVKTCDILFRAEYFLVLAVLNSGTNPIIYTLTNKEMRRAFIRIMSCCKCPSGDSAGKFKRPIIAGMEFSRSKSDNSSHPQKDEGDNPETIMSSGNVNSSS
Sequence of Vascular endothelial growth factor receptor 1 (P17948 whole entry): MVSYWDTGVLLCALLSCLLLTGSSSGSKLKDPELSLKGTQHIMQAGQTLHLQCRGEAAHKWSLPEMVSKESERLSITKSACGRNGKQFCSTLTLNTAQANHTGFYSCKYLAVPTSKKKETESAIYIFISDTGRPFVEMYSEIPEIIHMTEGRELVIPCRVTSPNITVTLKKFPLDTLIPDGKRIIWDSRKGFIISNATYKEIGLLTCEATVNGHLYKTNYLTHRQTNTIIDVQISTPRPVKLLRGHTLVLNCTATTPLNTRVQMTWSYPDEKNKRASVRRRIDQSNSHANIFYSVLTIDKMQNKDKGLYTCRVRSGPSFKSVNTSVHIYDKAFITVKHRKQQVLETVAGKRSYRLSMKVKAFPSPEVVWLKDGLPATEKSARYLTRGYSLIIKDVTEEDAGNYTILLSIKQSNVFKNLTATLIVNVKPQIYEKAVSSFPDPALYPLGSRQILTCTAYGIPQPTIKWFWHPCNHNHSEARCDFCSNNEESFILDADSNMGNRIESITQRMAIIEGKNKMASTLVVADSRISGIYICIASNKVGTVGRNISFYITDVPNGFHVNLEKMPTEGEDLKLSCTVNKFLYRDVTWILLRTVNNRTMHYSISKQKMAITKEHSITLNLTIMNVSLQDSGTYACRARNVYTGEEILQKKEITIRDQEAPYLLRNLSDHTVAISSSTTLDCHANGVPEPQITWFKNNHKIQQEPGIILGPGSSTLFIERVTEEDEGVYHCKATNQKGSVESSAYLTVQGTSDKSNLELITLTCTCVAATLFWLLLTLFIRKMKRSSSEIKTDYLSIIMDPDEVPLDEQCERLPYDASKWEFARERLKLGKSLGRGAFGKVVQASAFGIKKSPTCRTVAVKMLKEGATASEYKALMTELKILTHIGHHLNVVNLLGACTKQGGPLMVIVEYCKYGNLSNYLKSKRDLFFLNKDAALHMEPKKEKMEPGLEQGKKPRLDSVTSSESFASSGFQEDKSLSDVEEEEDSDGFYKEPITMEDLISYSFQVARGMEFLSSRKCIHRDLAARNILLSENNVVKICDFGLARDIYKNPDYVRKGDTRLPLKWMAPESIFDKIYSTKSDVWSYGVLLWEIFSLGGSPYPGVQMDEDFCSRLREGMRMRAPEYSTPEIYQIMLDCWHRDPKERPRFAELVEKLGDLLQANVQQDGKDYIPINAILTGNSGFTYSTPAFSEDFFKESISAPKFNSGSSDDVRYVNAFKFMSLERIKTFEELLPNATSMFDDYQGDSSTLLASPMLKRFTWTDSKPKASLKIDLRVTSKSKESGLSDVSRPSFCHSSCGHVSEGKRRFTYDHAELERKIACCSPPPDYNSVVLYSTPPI
Sequence of Inhibitor of nuclear factor kappa-B kinase subunit epsilon (Q14164 whole entry): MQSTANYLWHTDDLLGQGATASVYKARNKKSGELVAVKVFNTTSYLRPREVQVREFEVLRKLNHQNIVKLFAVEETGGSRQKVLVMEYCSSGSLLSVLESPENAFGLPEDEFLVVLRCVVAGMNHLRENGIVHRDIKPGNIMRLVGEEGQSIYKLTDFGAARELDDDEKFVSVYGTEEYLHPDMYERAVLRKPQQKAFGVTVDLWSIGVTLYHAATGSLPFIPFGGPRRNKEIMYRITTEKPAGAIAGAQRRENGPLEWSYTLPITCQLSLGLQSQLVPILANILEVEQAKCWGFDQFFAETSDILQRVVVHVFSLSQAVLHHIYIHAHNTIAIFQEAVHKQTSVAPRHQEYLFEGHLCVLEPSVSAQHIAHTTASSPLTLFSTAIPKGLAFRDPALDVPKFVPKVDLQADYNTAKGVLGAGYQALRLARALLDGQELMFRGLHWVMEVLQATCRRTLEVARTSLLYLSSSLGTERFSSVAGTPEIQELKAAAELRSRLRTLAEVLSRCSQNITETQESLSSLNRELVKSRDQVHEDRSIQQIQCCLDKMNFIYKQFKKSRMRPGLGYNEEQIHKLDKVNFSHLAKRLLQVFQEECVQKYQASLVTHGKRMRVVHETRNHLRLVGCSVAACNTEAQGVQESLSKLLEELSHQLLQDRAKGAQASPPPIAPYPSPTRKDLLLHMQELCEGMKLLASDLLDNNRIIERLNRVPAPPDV
Sequence of cAMP-dependent protein kinase catalytic subunit PRKX (P51817 whole entry): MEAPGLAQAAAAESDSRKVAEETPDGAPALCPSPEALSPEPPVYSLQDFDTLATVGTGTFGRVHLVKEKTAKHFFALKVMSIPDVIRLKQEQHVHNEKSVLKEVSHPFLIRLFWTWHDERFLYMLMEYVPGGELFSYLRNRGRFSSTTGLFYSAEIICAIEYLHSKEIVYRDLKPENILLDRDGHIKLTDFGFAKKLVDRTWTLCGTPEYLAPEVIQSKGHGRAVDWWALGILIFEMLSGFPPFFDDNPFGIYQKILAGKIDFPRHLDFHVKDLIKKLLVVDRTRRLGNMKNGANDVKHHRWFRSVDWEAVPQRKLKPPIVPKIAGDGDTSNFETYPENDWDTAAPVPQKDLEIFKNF
Sequence of Multidrug resistance protein CDR1 (P43071 whole entry, looked up): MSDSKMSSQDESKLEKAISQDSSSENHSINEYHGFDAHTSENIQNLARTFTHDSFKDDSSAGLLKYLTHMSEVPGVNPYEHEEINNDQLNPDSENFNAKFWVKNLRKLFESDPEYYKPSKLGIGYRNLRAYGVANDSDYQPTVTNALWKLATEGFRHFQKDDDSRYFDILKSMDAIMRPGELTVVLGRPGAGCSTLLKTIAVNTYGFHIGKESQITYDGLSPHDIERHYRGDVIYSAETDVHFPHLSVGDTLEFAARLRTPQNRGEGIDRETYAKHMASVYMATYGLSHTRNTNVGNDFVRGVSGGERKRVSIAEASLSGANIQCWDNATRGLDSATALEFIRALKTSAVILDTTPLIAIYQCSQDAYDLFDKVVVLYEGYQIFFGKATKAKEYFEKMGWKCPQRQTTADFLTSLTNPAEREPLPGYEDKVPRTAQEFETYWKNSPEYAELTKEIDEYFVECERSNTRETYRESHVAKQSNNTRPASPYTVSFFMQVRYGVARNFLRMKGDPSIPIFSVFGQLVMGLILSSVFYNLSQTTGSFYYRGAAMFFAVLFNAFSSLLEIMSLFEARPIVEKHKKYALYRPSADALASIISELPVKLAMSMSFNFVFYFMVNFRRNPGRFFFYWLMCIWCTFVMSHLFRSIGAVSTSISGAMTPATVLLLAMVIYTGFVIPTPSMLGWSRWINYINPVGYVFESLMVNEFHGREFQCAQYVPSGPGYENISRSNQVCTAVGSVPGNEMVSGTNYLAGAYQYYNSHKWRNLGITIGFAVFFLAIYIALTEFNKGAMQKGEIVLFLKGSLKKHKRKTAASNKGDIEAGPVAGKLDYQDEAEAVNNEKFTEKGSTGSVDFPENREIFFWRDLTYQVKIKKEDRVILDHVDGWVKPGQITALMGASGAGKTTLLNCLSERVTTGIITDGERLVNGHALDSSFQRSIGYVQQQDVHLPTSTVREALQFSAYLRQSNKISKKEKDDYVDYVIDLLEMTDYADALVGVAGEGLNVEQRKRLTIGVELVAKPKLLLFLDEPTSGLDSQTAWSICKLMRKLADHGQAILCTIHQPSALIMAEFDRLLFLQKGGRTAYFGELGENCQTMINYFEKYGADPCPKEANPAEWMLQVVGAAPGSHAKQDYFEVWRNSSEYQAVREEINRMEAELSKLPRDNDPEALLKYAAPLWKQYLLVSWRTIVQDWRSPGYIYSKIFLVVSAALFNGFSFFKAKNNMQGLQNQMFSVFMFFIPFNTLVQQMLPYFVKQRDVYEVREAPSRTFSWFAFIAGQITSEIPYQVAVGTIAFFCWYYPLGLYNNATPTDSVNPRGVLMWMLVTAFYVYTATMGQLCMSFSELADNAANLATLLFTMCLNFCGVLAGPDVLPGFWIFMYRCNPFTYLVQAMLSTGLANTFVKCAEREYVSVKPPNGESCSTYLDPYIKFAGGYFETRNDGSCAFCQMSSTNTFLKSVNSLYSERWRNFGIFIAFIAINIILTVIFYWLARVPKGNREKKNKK

SMILES: O=C(NN1C(=O)CSC1=S)C(=O)NN1C(=O)CSC1=S
- IC50 [1]: 7.75 µM (active)

SMILES: COC(=O)C1CN(C#N)N(c2ccc(Cl)cc2)C12c1ccccc1-c1ccccc12 (configuration not stated)
- EC50 [2]: > 120 µM (not active)
- CC50 [3]: 3.02 µM (active)
- EC50 [4]: 0.744 µM (active)
- IC50 [5]: 5.76 µM (active)
- EC50 [6]: 20.7 µM (active)
- AC50 [7]: 3.16 µM (active)

SMILES: Cc1ccc2[nH]c(/C(C#N)=C/c3ccc(O)c(O)c3)nc2c1
- EC50 [8]: 13.4 µM (active)

SMILES: Nc1noc2cccc(-c3cccc(O)c3)c12
- Ki [9]: 1.58 µM (active)
- Ki [10]: 6.31 µM (active)
- Ki [11]: > 10 µM (inactive)
- Ki [12]: > 31.6 µM (inactive)
- Ki [13]: > 1.26 µM (inactive)
- Ki [14]: 2.51 µM (active)
- Ki [15]: > 1.58 µM (inactive)
- Ki [16]: > 2 µM (inactive)
- Ki [17]: > 1.58 µM (inactive)
- Ki [18]: > 5.01 µM (inactive)
- Ki [19]: 5.01 µM (active)
- Ki [20]: > 7.94 µM (inactive)
- Ki [21]: > 7.94 µM (inactive)
- Ki [22]: > 1.58 µM (inactive)
- Ki [23]: > 3.98 µM (inactive)
- Ki [24]: > 10 µM (inactive)
- Ki [25]: > 5.01 µM (inactive)
- Ki [26]: 39.8 µM (active)

SMILES: CN(C)S(=O)(=O)Oc1cccc(C(=O)Nc2ccc(Cl)c(Cl)c2)c1
- EC50 [27]: 0.574 µM (active)
